The text below walks through data of US9133168B2, “Pyrimidine derivatives, preparation thereof, and pharmaceutical use thereof as akt(pkb) phosphorylation inhibitors” (SANOFI, priority 2010, dated 2015).

The structures appear in SMILES notation.

The subject of the first test is AKT protein phosphorylated on serine 473 (P-AKT-S473) in PC3 human prostate carcinoma cells. The test can be described thus: pAKT expression in PC3 human prostate carcinoma cells, MSD Multi-spot Biomarker detection (Test A). It is filed as cell-based. Particulars: Homo sapiens, PC-3, PC3 cells, 1 to 2 h incubation, P-AKT-S473, absolute IC50, mean of two independent experiments. The gist of the method:
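Lysate pAKT-S473 measured by electrochemiluminescent sandwich immunoassay; inhibition versus cell-free background and DMSO-only wells, IC50 averaged over two experiments.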
Consider `C[C@@H]1Cc2ccccc2N1C(=O)Cc1nc(N2CCOCC2)c(Cl)c(=O)[nH]1` [Example 36a, 5-chloro-2-[2-((R)-2-methyl-2,3-dihydroindol-1-yl)-2-oxoethyl]-6-morpholin-4-yl-3H-pyrimidin-4-one], for which the IC50 worked out at 55 nM. Same read-out and setting: the value for `C[C@H]1Cc2ccccc2N1C(=O)Cc1nc(N2CCOCC2)c(Br)c(=O)[nH]1` [Example 37a, 5-bromo-2-[2-((S)-2-methyl-2,3-dihydroindol-1-yl)-2-oxoethyl]-6-morpholin-4-yl-3H-pyrimidin-4-one] was 56 nM; that for `O=C(Cc1nc(N2CCOCC2)c(F)c(=O)[nH]1)N1c2ccccc2C[C@@H]1CO` [Example 38a, 5-Fluoro-2-[2-((+)-2-hydroxymethyl-2,3-dihydroindol-1-yl)-2-oxoethyl]-6-morpholin-4-yl-3H-pyrimidin-4-one] was 1140 nM. As for `O=C(Cc1nc(N2CCOCC2)cc(=O)[nH]1)N1c2ccccc2CC1CF` (stereo not drawn) [Example 38d, 2-[2-((+)-2-Fluoromethyl-2,3-dihydroindol-1-yl)-2-oxoethyl]-6-morpholin-4-yl-3H-pyrimidin-4-one], the IC50 is 15 nM. Same read-out and setting: the value for `O=C(Cc1nc(N2CCOCC2)c(F)c(=O)[nH]1)N1c2ccccc2C[C@H]1CO` [Example 39a, 5-Fluoro-2-[2-((−)-2-hydroxymethyl-2,3-dihydroindol-1-yl)-2-oxoethyl]-6-morpholin-4-yl-3H-pyrimidin-4-one] was 568 nM. The same measure, in the same setting: then `O=C(Cc1nc(N2CCOCC2)cc(=O)n1-c1ccccc1)N1CCc2ccccc21` [Example 39d, 2-[2-(2,3-Dihydroindol-1-yl)-2-oxoethyl]-6-morpholin-4-yl-3-phenyl-3H-pyrimidin-4-one], with 51 nM.

In turn, `CC(C)[C@@H]1Cc2ccccc2N1C(=O)Cc1nc(N2CCOCC2)cc(=O)[nH]1` [Example 40c, (+)-2-[2-(2-isopropyl-2,3-dihydroindol-1-yl)-2-oxoethyl]-6-morpholin-4-yl-3H-pyrimidin-4-one] had an IC50 of 243 nM. For `CC(C(=O)N1CCc2c(F)cccc21)c1nc(N2CCOCC2)cc(=O)[nH]1` (centres unmarked) [Example 41c, 2-[1-(4-fluoro-2,3-dihydro-1H-indol-1-yl)-1-oxopropan-2-yl]-6-(morpholin-4-yl)pyrimidin-4(3H)-one], inhibition was half-maximal at 29 nM (IC50).

`Nn1c(CC(=O)N2CCc3ccccc32)nc(N2CCOCC2)cc1=O` [Example 41d, 3-amino-2-[2-(2,3-dihydro-1H-indol-1-yl)-2-oxoethyl]-6-(morpholin-4-yl)pyrimidin-4(3H)-one] came in with an IC50 of 131 nM. `N#Cn1c(CC(=O)N2CCc3ccccc32)nc(N2CCOCC2)cc1=O` [Example 42d, 2-[2-(2,3-dihydro-1H-indol-1-yl)-2-oxoethyl]-4-(morpholin-4-yl)-6-oxopyrimidine-1(6H)-carbonitrile] registered an IC50 of 24 nM.

As to `N#Cc1cccc2c1CCN2C(=O)Cc1nc(N2CCOCC2)cc(=O)[nH]1` [Example 46c, 1-{[4-(morpholin-4-yl)-6-oxo-1,6-dihydropyrimidin-2-yl]acetyl}-2,3-dihydro-1H-indole-4-carbonitrile], the midpoint of inhibition, the IC50, lay at 101 nM.

Staying with this test, now noted: PC3 cells, 1 to 2 h incubation, P-AKT-S473, absolute IC50, mean of two independent experiments.
Regarding `CC1Cc2ccc(F)cc2N1C(=O)Cc1nc(N2CCOCC2)cc(=O)[nH]1` (stereo not drawn) [Example 35c, 2-{2-[(+)-6-fluoro-2-methyl-2,3-dihydro-1H-indol-1-yl]-2-oxoethyl}-6-(morpholin-4-yl)pyrimidin-4(3H)-one], 27 nM corresponded to half-maximal inhibition (IC50).

`CC1Cc2ccc(F)cc2N1C(=O)Cc1nc(N2CCOCC2)cc(=O)[nH]1` (stereo not drawn) [Example 36c, 2-{2-[(−)-6-fluoro-2-methyl-2,3-dihydro-1H-indol-1-yl]-2-oxoethyl}-6-(morpholin-4-yl)pyrimidin-4(3H)-one]: the midpoint of inhibition, the IC50, lay at 9 nM. Still for that read-out and setting: the value for `O=C(Cc1nc(N2CCOCC2)cc(=O)[nH]1)N1c2ccccc2CC1CF` (stereo not drawn) [Example 40d, 2-[2-((−)-2-Fluoromethyl-2,3-dihydroindol-1-yl)-2-oxoethyl]-6-morpholin-4-yl-3H-pyrimidin-4-one] was 13 nM.

In general, IC50 refers to the point on the concentration scale where inhibition reaches its midpoint.
